Laboratory results: patent publication US11168319B1, “Plant cell culture” (Inari Agriculture Technology, Inc., priority 2017, dated 2021)
Like-named read-outs stand apart in the source and are kept apart here.

What was measured:
maize B73 protoplasts = details: for Viability (%): 1 mM GSH; for protoplast viability: 288 hours
Description: (§1) Separate suspensions of maize B73 and A188 protoplasts (2×10^5 cells per milliliter) were prepared in YPIM B-liquid medium containing various combinations of the added salts calcium chloride, potassium ascorbate, and magnesium chloride or magnesium sulfate. One-half milliliter aliquots of the suspensions were dispensed into a 24-well microtiter plate in the arrangement shown in Table 2, which lists the concentrations of calcium chloride (“Ca”), potassium ascorbate (“A”), and magnesium chloride (“MgCl2”) or magnesium sulfate (“MgSO4”) in millimolar values.
(§2) Viability was judged by Evans blue staining and visualization under a light microscope.
Separate suspensions of maize B73, winter wheat, soy, and strawberry protoplasts (2×10^5 cells per milliliter) were prepared in YPIM B-liquid medium containing calcium chloride at 0, 50, or 100 millimolar. One-half milliliter aliquots of the suspensions were dispensed into a 24-well microtiter plate.
Viability at day 8 of culture was judged by visualization under a light microscope.
Viability at day 13 was judged by Evans blue staining and visualization under a light microscope.
(§3) Separate suspensions of maize B73 protoplasts (2×10^5 cells per milliliter) were prepared in PIM B-liquid medium (identical to YPIM B-medium except with the 6-benzylaminopurine substituted with 0.022 milligrams/L thidiazuron) containing calcium chloride added at 0, 5, 20, 40, 70, or 100 millimolar. One-half milliliter aliquots of the suspensions were dispensed into a 24-well microtiter plate.
Viability was judged by visualization under a light microscope at day 7 and at day 14 of culture.
as §3, with “B73 and A188” for “B73”, “0” for “0, 5, 20, 40, 70,”, “50” for “100”
(§4) Viability was judged by visualization under a light microscope.
(§5) Separate suspensions of maize B73 and A188 protoplasts (2×10^5 cells per milliliter) were prepared in YPIM B-liquid medium containing (a) calcium chloride added at 100 millimolar, or (b) 1 millimolar glutathione, or (c) no added calcium or glutathione. One-milliliter aliquots of the suspensions were dispensed into a 24-well microtiter plate. At 16, 40, 64, and 136 hours of culture, 50-microliter samples were taken for hemocytometer analysis from each well; for the plates containing maize A188 protoplasts, parallel 50-microliter samples were taken from a replicate well at 16, 40, and 64 hours of culture for quantification using a Cellometer cell counter (Nexcelom Bioscience LLC, Lawrence, Mass.).
(§6) Viability was determined by Evans blue staining and quantification using a hemocytometer. Under conditions with high concentrations of calcium, Evans blue can create precipitates that interfere with cell counting; to prevent this, 5 microliters of an EDTA solution was added to the samples from the wells containing 100 millimolar calcium chloride immediately prior to staining.

maize B104 protoplasts = assay: Cell division rate by EdU staining (% EdU); details: for EdU staining mean %: Ca^2+ 100 mM, glutathione 0.5 mM, 90 h
Description: Cell division rates are expressed as “% EdU” (percentage of cells displaying the EdU signal relative to the total cell count).
Cell division was monitored, e.g., by microscopic observations. […] Evidence of cell division was observed by microscopy and included increased cell or protoplast size, bulging membranes, and large groups of organelles occupying the separating daughter cells. Quantification of cell division was carried out using fluorescent staining. […] Cells that are the result of cellular division in the presence of EdU were identified by the resulting green fluorescent signal, which can be quantified by various means, e.g., with a microplate reader, cell counter, or cell sorter.
In a separate experiment, maize HiIIA protoplasts were grown in 24-well plates using YPIM B-liquid medium containing 100 millimolar Ca^2+ and 20 micromolar EdU. Identical plates were incubated under hypoxia (5% oxygen by volume, 26 degrees Celsius, 80% relative humidity) or ambient oxygen (21% oxygen by volume, 26 degrees Celsius, 80% relative humidity). Entire wells (250 microliters) were taken for EdU detection at four time points. The contents of each well was centrifuged and the pellet subjected to the Click-iT™ EdU Alexa Fluor™ 488 Imaging Kit (catalogue number C10337, Thermo Fisher Scientific, Waltham, Mass.) fluorescent labelling protocol. The labelled protoplasts were resuspended in YPIM B-medium and samples analyzed on a Nexcelom Cellometer (Nexcelom Bioscience LLC, Lawrence, Mass.). This assay was developed to detect the EdU signal from the nucleus of a cell resulting from cell division, as well as the fluorescent signal from chloroplasts as a measure of total cell count.
Entire wells (1000 microliters) were taken for EdU detection at three time points; analyses were of duplicate samples of each of two replicate wells.

maize A188 protoplasts = assay: Protoplast viability (Evans blue staining / light microscope / hemocytometer); assay type: cell-based; details: for Viability (%): 1 mM GSH; for protoplast viability: 288 hours
Description: as §1, §2
Separate suspensions of maize A188 protoplasts (2×10^5 cells per milliliter) were prepared in YPIM B-liquid medium containing calcium chloride at 0 or 50 millimolar. One-half milliliter aliquots of the suspensions were dispensed into a 24-well microtiter plate.
as §4
as §3, with “B73 and A188” for “B73”, “0” for “0, 5, 20, 40, 70,”, “50” for “100”
as §5, §6

[1] = tested on: maize (Zea mays) alcohol dehydrogenase ADH1 gene; assay: HDR/NHEJ editing of endogenous gene in maize protoplasts (PCR, KpnI/NdeI); assay type: cell-based; details: 0.5 mM GSH
Description: A ribonucleoprotein (RNP) was prepared with Cas9 nuclease (Aldevron, Fargo, N. Dak.) and a guide RNA complex designed to edit the first ADH1 exon, consisting of a crRNA (ZmADH1-B) with the sequence
Integrated DNA Technologies, Coralville, Iowa); the donor ssDNA contained three phosphorothioate linkages at each terminus (i.e., the three linkages between the most distal four bases on either end of the strand), and contained a KpnI restriction enzyme digestion site at nucleotide positions 67-72 (shown as underlined text). A double-stranded DNA (purchased from Integrated DNA Technologies, Coralville, Iowa) was designed with a forward strand having the sequence
wherein each strand was phosphorylated on the 5′ end and contained two phosphorothioate linkages at each terminus (i.e., the two linkages between the most distal three bases on either end of the strand); this contained an NdeI restriction site located at nucleotide positions 16-21 of the forward strand (SEQ ID NO:16), shown as underlined font. Insertion of this sequence into the first exon of the target gene ADH1 serves as a proxy readout for efficiency of the NHEJ pathway (i.e., non-homologous repair of the expected DSB).
(§7) Transfection procedures were essentially as described in Example 13. In a first experiment, cells were treated with the HDR ssDNA donor containing a Kpn1 restriction site, or with no donor polynucleotide. After transfection with the editing reagents, the washed and pelleted cells were then resuspended in PIM containing 50 millimolar CaCl2, and then plated in 6-well plates coated with 5% calf serum. The plates were sealed with Parafilm™ and allowed to incubate at 37 degrees Celsius for 1 hour. For the hypoxia treatment, the Parafilm™ was removed and the plates were then placed in a hypoxia chamber having about 5% oxygen by volume at 26 degrees Celsius in the dark. For normoxia treatment, the Parafilm™ was kept in place and the plates were incubated at 26 degrees Celsius in a growth chamber in the dark. Cells were harvested 48 hours and HDR editing efficacy was quantitated by PCR analysis using Phusion™ Flash PCR (Thermo Fisher Scientific, Waltham, Mass.).
as §7, with “In” for “Transfection procedures were essentially as described in Example 13. In”, “second” for “first”, “Kpn1 restriction site, or with the NHEJ dsDNA containing an NdeI” for “Kpn1”, “CaCl2, with or without 0.5 millimolar glutathione (GSH),” for “CaCl2,”, “subjected to” for “HDR editing efficacy was quantitated by”

[2] = tested on: maize B73 and A188 protoplasts; assay: Protoplast viability, statements pooled for both maize lines; assay type: cell-based; details: after 288 hours, various ascorbate concentrations (0.1-1 mM)
Description: as §1, §2
as §5, with “One-milliliter aliquots of the suspensions were dispensed into a 24-well microtiter plate.” left out
Viability was determined by Evans blue staining and quantification using a hemocytometer. […]

[3] = 100 mM added salt, YPIM B- medium

SMILES: N[C@@H](CCC(=O)N[C@@H](CS)C(=O)NCC(=O)O)C(=O)O [glutathione]
- Viability (%) (maize B73 protoplasts; 0 hours, hemocytometer): 90%
- Viability (%) (maize B73 protoplasts; 16 hours): 77%
- Viability (%) (maize B73 protoplasts; 40 hours): 72%
- Viability (%) (maize B73 protoplasts; 64 hours): 48%
- Viability (%) (maize B73 protoplasts; 136 hours): 24%
- EdU staining mean % (maize B104 protoplasts; O2 5%): 18.4%
- EdU staining mean % (maize B104 protoplasts; O2 21%): 16.9%
- change in rate of cell division (% EdU) (maize B104 protoplasts; addition of 0.5 millimolar glutathione, hypoxic conditions, 100 mM Ca^2+): little change
- increase in rate of cell division (% EdU) (maize B104 protoplasts; addition of 0.5 millimolar glutathione, normal atmospheric oxygen, 100 mM Ca^2+): about 2 fold
- Viability (%) (maize A188 protoplasts; 0 hours, hemocytometer): 90%
- Viability (%) (maize A188 protoplasts; 16 hours): 69%
- Viability (%) (maize A188 protoplasts; 40 hours): 50%
- Viability (%) (maize A188 protoplasts; 64 hours): 50%
- Viability (%) (maize A188 protoplasts; 136 hours): 42%
- % KpnI (HDR) ([1]; editing reagents: Null): 0.00%
- % NdeI (NHEJ) ([1]; editing reagents: Null): 0.00%
- % KpnI (HDR) ([1]; editing reagents: RNP only): 0.00%
- % NdeI (NHEJ) ([1]; editing reagents: RNP only): 0.00%
- % KpnI (HDR) ([1]; editing reagents: RNP plus HDR donor): 5.0%
- % KpnI (HDR) ([1]; editing reagents: RNP plus HDR donor, listed as GSH): 5.00%
- % NdeI (NHEJ) ([1]; editing reagents: RNP plus NHEJ donor): about 15%
- % NdeI (NHEJ) ([1]; editing reagents: RNP plus NHEJ donor, listed as GSH): 15.01%

SMILES: [Cl-].[Cl-].[Mg+2] [magnesium chloride]
- protoplast viability (maize B73 protoplasts; [3]): much higher viability than any well
- plant protoplast viability (plant protoplasts; about 40 millimolar or about 50 millimolar): Even higher levels of plant protoplast viability
- protoplast viability (plant protoplasts; between or about 50 to about 100 millimolar, several titration experiments): greatest improvement in protoplast viability
- plant protoplast viability (plant protoplasts; culture medium contains about 30 millimolar): Beneficial effects
- protoplast viability (maize A188 protoplasts; [3]): about 70%

SMILES: O=S(=O)([O-])[O-].[Mg+2] [magnesium sulfate]
- protoplast viability (maize B73 protoplasts; 50 or 100 mM): only a modest improvement
- protoplast viability (maize A188 protoplasts; 50 mM added salt, YPIM B- medium): 30-40%
- protoplast viability (maize A188 protoplasts; 50 or 100 mM): only a modest improvement

SMILES: O=C1O[C@H]([C@@H](O)CO)C([O-])=C1O.[K+] [potassium ascorbate]
- viability [2]: only slight effects
- protoplast viability (maize A188 protoplasts; 0.2 millimolar and above added to wells with added calcium): slightly decrease viability
